Reference: patent US6806230B1, “Pyrimidine derivatives and herbicides containing them” (Kumiai Chemical Industry Co., Ltd., priority 1999, dated 2004)

Experiments:
Assay type in all cases: in vivo
barnyard grass (Eo) [1] = assay: Test Example 1: herbicidal effects by flooded paddy field treatment; design: herbicidal effects, Eo (barnyard grass):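 0-5 growth inhibition grade; 5 = over 90%; 4 = 70-90%; 3 = 50-70%; 2 = 30-50%; 1 = 10-30%; 0 = under 10%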; conditions: dose 100 g active ingredient per 10 ares, examined on the 21st day after treatment, standards of Table 44
Summary of the method: (§1)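 Herbicidal effect is a graded score assigned 21 days after treatment. Application was one day after sowing into flooded (3 cm) puddled paddy soil, with diluted wettable powder dropped onto the water at 100 g active ingredient per 10 ares. Plants were kept in a greenhouse.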

monochoria (Mo) [2] = assay: as above; design: herbicidal effects, Mo (monochoria):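 0-5 growth inhibition grade; 5 = over 90%; 4 = 70-90%; 3 = 50-70%; 2 = 30-50%; 1 = 10-30%; 0 = under 10%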; conditions: dose 100 g active ingredient per 10 ares, examined on the 21st day after treatment, standards of Table 44
Summary of the method: as §1

barnyard grass (Ec) [3] = assay: Test Example 2: herbicidal effects by upland soil treatment; design: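 0-5 growth inhibition grade; 5 = over 90%; 4 = 70-90%; 3 = 50-70%; 2 = 30-50%; 1 = 10-30%; 0 = under 10%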; conditions: dose 100 g active ingredient per 10 ares, examined on the 21st day after treatment
Summary of the method: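 Pre-emergence test: barnyard grass and green foxtail sown in upland soil, then soil surface sprayed with wettable-powder formulation at 100 g active ingredient per 10 ares (100 l per 10 ares). Grown in greenhouse; herbicidal effect scored on a rating scale 21 days after treatment.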

barnyard grass (Ec) [4] = assay: Test Example 3: herbicidal effects by foliage treatment in upland field; design: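 0-5 growth inhibition grade; 5 = over 90%; 4 = 70-90%; 3 = 50-70%; 2 = 30-50%; 1 = 10-30%; 0 = under 10%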; conditions: dose 100 g active ingredient per 10 ares, examined on the 14th day after treatment
Summary of the method: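 Barnyard grass and green foxtail were grown in upland soil for 2 weeks in a greenhouse. A water-diluted wettable powder was sprayed over the foliage at 100 l per 10 ares, giving 100 g active ingredient per 10 ares. Herbicidal effect was scored on day 14 after treatment.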

barnyard grass (Eo) [5] = assay: Test Example 4: selectivity for a crop plant by flooded paddy field treatment; design: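 0-5 growth inhibition grade; 5 = over 90%; 4 = 70-90%; 3 = 50-70%; 2 = 30-50%; 1 = 10-30%; 0 = under 10%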; conditions: barnyard grass, dose 25 gai/10a, 21st day after treatment, index per Table 44
Summary of the method: (§2)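 Scores reflect visual herbicidal effect, graded on a standard scale 21 days after water-surface treatment. The product, a wettable powder diluted with water, went on dropwise at 25 g a.i. per 10 ares one day after flooding to 3 cm. Weeds grew from sown seed and rice was transplanted at second-leaf stage.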

monochoria (Mo) [6] = assay: as above; design: scale not given here; conditions: monochoria, dose 25 gai/10a, 21st day after treatment, index per Table 44
Summary of the method: as §2

rice (Or) = assay: as above; design: scale not given here; conditions: rice transplanted at second leaf stage, dose 25 gai/10a, 21st day after treatment, index per Table 44
Summary of the method: as §2

SMILES | herbicidal effects, Eo (barnyard grass) (barnyard grass (Eo) [1]) | herbicidal effects, Mo (monochoria) (monochoria (Mo) [2]) | Ec (herbicidal effects, index) (barnyard grass (Ec) [3]) | Ec (herbicidal effects, index) (barnyard grass (Ec) [4]) | Eo (herbicidal effect index) (barnyard grass (Eo) [5]) | Mo (herbicidal effect index) (monochoria (Mo) [6]) | Or (herbicidal effect index on crop) (rice (Or))
C#CCN(C(=O)Cc1ccccc1)C(CCC)c1cncnc1CC (racemic) [1-606] | 5 | 5 | 5 | 4 | 5 | 5 | 1
C=CCN(C(=O)Cc1ccc(F)cc1)C(c1cncnc1C(F)(F)F)C(C)C (racemic) [1-519] | 5 | 5 | 5 | 4 | 5 | 5 | 1
CCCc1ncncc1C(CCC)N(C)C(=O)Cc1ccc(Cl)cc1 (racemic) [1-494] | 5 | 5 | 5 | 5 | 5 | 5 | 1
CC(C)C(c1cncnc1C(F)(F)F)N(C)C(=O)NCc1ccccc1 (racemic) [1-461] | 5 | 5 | 5 | 4 | 5 | 5 | 1
CCC(c1cncnc1C(C)(C)C)N(C)C(=O)Cc1ccc(Cl)cc1 (racemic) [1-572] | 5 | 5 | 5 | 4 | 5 | 5 | 1
COCC(c1cncnc1C(C)C)N(C)C(=O)Cc1ccc(Cl)cc1 (racemic) [1-584] | 5 | 5 | 5 | 4 | 5 | 5 | 1
CC(=O)c1ncncc1C(C(C)C)N(C)C(=O)Cc1ccc(Cl)cc1 (racemic) [1-528] | 5 | 5 | 5 | 4 | 5 | 5 | 1
CC(C)C(c1cncnc1C(F)(F)F)N(C)C(=O)N(C)c1ccc(C#N)cc1 (racemic) [1-459] | 5 | 5 | 5 | 4 | 5 | 5 | 1
CC(C)C(c1cncnc1C(F)(F)F)N(C)C(=O)Cc1ccc(Cl)s1 (racemic) [2-25] | 5 | 5 | 5 | 5 | 5 | 5 | 1
CCC(c1cncnc1C(C)C)N(C)C(=O)Cc1ccccc1 (racemic) [1-436] | 5 | 5 | 5 | 4 | 5 | 5 | 1
CSC(C)C(c1cncnc1C(F)(F)F)N(C)C(=O)Cc1ccc(F)cc1 (mixture of isomers) [1-416] | 5 | 5 | 5 | 5 | 5 | 5 | 1
CN(C(=O)Cc1ccc(F)cc1)C(c1cncnc1C1(C)CC1)C1(C)CC1 (racemic) [1-473] | 5 | 5 | 5 | 5 | 5 | 5 | 1
CCCC(c1cncnc1C(C)C)N(C)C(=O)Cc1ccc(C)cc1 (racemic) [1-452] | 5 | 5 | 5 | 4 | 5 | 5 | 0
CON=Cc1ncncc1C(C(C)C)N(C)C(=O)Cc1ccccc1 (racemic) [1-496] | 5 | 5 | 5 | 4 | 5 | 5 | 1
CCOC(=O)c1ncncc1C(C(C)C)N(C)C(=O)C(C)c1ccc(Cl)cc1 (single isomer, unassigned) [1-594] | 5 | 5 | 5 | 5 | 5 | 5 | 1
Cc1ccc(CC(=O)N(C)C(c2cncnc2C#N)C(C)C)cc1 (racemic) [1-507] | 5 | 5 | 5 | 4 | 5 | 5 | 1
